Results taken from patent US9474790B2, “Stable, protracted GLP-1/glucagon receptor co-agonists for medical use” (Novo Nordisk A/S, priority 2013, dated 2016).
Numbered stars: 1 amine (or outer) side, 2 acyl side, 3 side chain; on linkers, the order of the positions; unused ones are H or OH. Square brackets hold non-standard residues; d marks the D form. Side chains are listed from the residue outwards. Peptide text beside a SMILES is read from it. * marks the point of attachment. C18 diacid = O=C(O)CCCCCCCCCCCCCCCCC(=O)*; γGlu = O=C(O)[C@H](CCC(=O)[*:2])N[*:1]; Ac4c = NC1(C(=O)O)CCC1; AEEA = NCCOCCOCC(=O)O; Aib = CC(C)(N)C(=O)O

biological target: T1, human GLP-1 receptor (Homo sapiens, UniProt P43220); experiment: GLP-1 receptor potency, CRE luciferase reporter gene assay in BHK cells; format: cell-based; conditions: BHK cells expressing human GLP-1 receptor, read-out: EC50 GLP-1R
T1 construct: expressed in transfected cells; host or cells: BHK cells (parent BHKTS13), clone FCW467-12A/KZ10-1, with CRE luciferase
T1 sequence (P43220 24-463): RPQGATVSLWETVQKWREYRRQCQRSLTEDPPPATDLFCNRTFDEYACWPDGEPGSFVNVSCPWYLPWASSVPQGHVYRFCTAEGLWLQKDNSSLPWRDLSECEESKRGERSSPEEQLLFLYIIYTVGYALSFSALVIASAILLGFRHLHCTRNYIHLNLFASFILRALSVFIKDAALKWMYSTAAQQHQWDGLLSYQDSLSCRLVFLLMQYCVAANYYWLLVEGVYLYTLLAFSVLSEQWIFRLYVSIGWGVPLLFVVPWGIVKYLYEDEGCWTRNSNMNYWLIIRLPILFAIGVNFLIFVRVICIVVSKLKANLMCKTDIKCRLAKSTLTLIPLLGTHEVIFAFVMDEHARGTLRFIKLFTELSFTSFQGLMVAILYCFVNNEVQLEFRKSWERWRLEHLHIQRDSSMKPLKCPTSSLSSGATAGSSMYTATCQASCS
Outline: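 Potency as cAMP-driven firefly luciferase signal after 3 h, 37° C exposure to 10-fold dilutions (final 1×10EE-13–1×10EE-6 M). Stable hGLP-1R/CRE-luc BHK clone, 5×10EE3 cells/well, medium containing 2% ovalbumin and 0.2% Pluronic F-68; EC50 (pM) from variable-slope non-linear regression.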

| Structure (SMILES) | EC50 [pM] |
| --- | --- |
| CC(C)C[C@H](NC(=O)[C@H](CC(C)C)NC(=O)[C@H](Cc1c[nH]c2ccccc12)NC(=O)[C@H](CCC(N)=O)NC(=O)[C@@H](NC(=O)[C@H](Cc1ccccc1)NC(=O)[C@H](CCC(=O)O)NC(=O)[C@H](CCCNC(=N)N)NC(=O)[C@H](C)NC(=O)[C@H](CCCNC(=N)N)NC(=O)[C@H](CCCNC(=N)N)NC(=O)[C@H](CO)NC(=O)[C@H](CCC(=O)O)NC(=O)[C@H](CC(C)C)NC(=O)[C@H](Cc1ccc(O)cc1)NC(=O)[C@H](CCCCN)NC(=O)[C@H](CO)NC(=O)[C@H](CC(C)C)NC(=O)[C@H](CC(=O)O)NC(=O)[C@H](CO)NC(=O)[C@@H](NC(=O)[C@H](Cc1ccccc1)NC(=O)[C@@H](NC(=O)CNC(=O)[C@H](CCC(N)=O)NC(=O)C(C)(C)NC(=O)[C@@H](N)Cc1c[nH]cn1)[C@@H](C)O)[C@@H](C)O)C(C)C)C(=O)N[C@@H](CC(N)=O)C(=O)N[C@@H](CCCCNC(=O)CC[C@H](NC(=O)COCCOCCNC(=O)COCCOCCNC(=O)CC[C@H](NC(=O)CC[C@H](NC(=O)CCCCCCCCCCCCCCCCC(=O)O)C(=O)O)C(=O)O)C(=O)O)C(N)=O [Example 21, N^ε29-[(4S)-4-carboxy-4-[[2-[2-[2-[[2-[2-[2-[[(4S)-4-carboxy-4-[[(4S)-4-carboxy-4-(17-carboxyheptadecanoylamino)butanoyl]amino]butanoyl]amino]ethoxy]ethoxy]acetyl]amino]ethoxy]ethoxy]acetyl]amino]butanoyl]-[Aib2,Leu10,Glu15,Arg20,Glu21,Leu27,Lys29]-Glucagon amide] (H-H[Aib]QGTFTSDLSKYLESRRAREFVQWLLNK([γGlu-AEEA-AEEA-γGlu-γGlu-C18 diacid])-NH2; N-terminus assumed) | 2.7 |
| CC(C)C[C@H](NC(=O)[C@H](Cc1ccc(O)cc1)NC(=O)[C@H](CCCCN)NC(=O)[C@H](CO)NC(=O)[C@H](CC(C)C)NC(=O)[C@H](CC(=O)O)NC(=O)[C@H](CO)NC(=O)[C@@H](NC(=O)[C@H](Cc1ccccc1)NC(=O)[C@@H](NC(=O)CNC(=O)[C@H](CCC(N)=O)NC(=O)C(C)(C)NC(=O)[C@@H](N)Cc1c[nH]cn1)[C@@H](C)O)[C@@H](C)O)C(=O)N[C@@H](CCC(=O)O)C(=O)N[C@@H](CO)C(=O)N[C@@H](CCCCN)C(=O)N[C@@H](CCCNC(=N)N)C(=O)N[C@@H](C)C(=O)N[C@@H](CCCNC(=N)N)C(=O)N[C@@H](CCC(=O)O)C(=O)N[C@@H](Cc1ccccc1)C(=O)N[C@H](C(=O)N[C@@H](CCC(N)=O)C(=O)N[C@@H](Cc1c[nH]c2ccccc12)C(=O)N[C@@H](CC(C)C)C(=O)N[C@@H](CC(C)C)C(=O)N[C@@H](CCCCNC(=O)CC[C@H](NC(=O)CC[C@H](NC(=O)[C@H](CO)NC(=O)[C@H](CCC(=O)O)NC(=O)[C@H](CO)NC(=O)CC[C@H](NC(=O)CC[C@H](NC(=O)CCCCCCCCCCCCCCCCC(=O)O)C(=O)O)C(=O)O)C(=O)O)C(=O)O)C(=O)N[C@H](C(N)=O)[C@@H](C)O)C(C)C [Example 52] (H-H[Aib]QGTFTSDLSKYLESKRAREFVQWLLK([γGlu-γGlu-Ser-Glu-Ser-γGlu-γGlu-C18 diacid])T-NH2; N-terminus assumed) | 4 |
| CC(C)C[C@H](NC(=O)[C@H](Cc1ccc(O)cc1)NC(=O)[C@H](CCCCN)NC(=O)[C@H](CO)NC(=O)[C@H](CC(C)C)NC(=O)[C@H](CC(=O)O)NC(=O)[C@H](CO)NC(=O)[C@@H](NC(=O)[C@H](Cc1ccccc1)NC(=O)[C@@H](NC(=O)CNC(=O)[C@H](CCC(N)=O)NC(=O)C(C)(C)NC(=O)[C@@H](N)Cc1c[nH]cn1)[C@@H](C)O)[C@@H](C)O)C(=O)N[C@@H](CCC(=O)O)C(=O)N[C@@H](CO)C(=O)N[C@@H](CCCNC(=N)N)C(=O)N[C@@H](CCCNC(=N)N)C(=O)N[C@@H](C)C(=O)N[C@@H](CCCNC(=N)N)C(=O)N[C@@H](CCC(=O)O)C(=O)N[C@@H](Cc1ccccc1)C(=O)N[C@H](C(=O)N[C@@H](CCC(N)=O)C(=O)N[C@@H](Cc1c[nH]c2ccccc12)C(=O)N[C@@H](CC(C)C)C(=O)N[C@@H](CC(C)C)C(=O)N[C@@H](CCCCNC(=O)CC[C@H](NC(=O)CC[C@H](NC(=O)CC[C@H](NC(=O)CCCCCCCCCCCCCCCCC(=O)O)C(=O)O)C(=O)O)C(=O)O)C(=O)N[C@H](C(N)=O)[C@@H](C)O)C(C)C [Example 41, N^ε28-[(4S)-4-carboxy-4-[[(4S)-4-carboxy-4-[[(4S)-4-carboxy-4-(17-carboxyheptadecanoylamino)butanoyl]amino]butanoyl]amino]butanoyl]-[Aib2,Leu10,Glu15, Arg20,Glu21,Leu27,Lys28]-Glucagon amide] (H-H[Aib]QGTFTSDLSKYLESRRAREFVQWLLK([γGlu-γGlu-γGlu-C18 diacid])T-NH2; N-terminus assumed) | 7 |
| CC(C)C[C@H](NC(=O)[C@H](CC(C)C)NC(=O)[C@H](Cc1c[nH]c2ccccc12)NC(=O)[C@H](CCC(N)=O)NC(=O)[C@@H](NC(=O)[C@H](Cc1ccccc1)NC(=O)[C@H](CCC(=O)O)NC(=O)[C@H](CCCNC(=N)N)NC(=O)[C@H](C)NC(=O)[C@H](CCCNC(=N)N)NC(=O)[C@H](CCCNC(=N)N)NC(=O)[C@H](CO)NC(=O)[C@H](CC(=O)O)NC(=O)[C@H](CC(C)C)NC(=O)[C@H](Cc1ccc(O)cc1)NC(=O)[C@H](CCCCN)NC(=O)[C@H](CO)NC(=O)[C@H](CC(C)C)NC(=O)[C@H](CC(=O)O)NC(=O)[C@H](CO)NC(=O)[C@@H](NC(=O)[C@H](Cc1ccccc1)NC(=O)[C@@H](NC(=O)CNC(=O)[C@H](CCC(N)=O)NC(=O)C(C)(C)NC(=O)[C@@H](N)Cc1c[nH]cn1)[C@@H](C)O)[C@@H](C)O)C(C)C)C(=O)N[C@@H](CC(N)=O)C(=O)N[C@@H](CCCCNC(=O)CC[C@H](NC(=O)CC[C@H](NC(=O)COCCOCCNC(=O)COCCOCCNC(=O)CC[C@H](NC(=O)CCCCCCCCCCCCCCCCC(=O)O)C(=O)O)C(=O)O)C(=O)O)C(N)=O [Example 12, N^ε29-[(4S)-4-carboxy-4-[[(4S)-4-carboxy-4-[[2-[2-[2-[[2-[2-[2-[[(4S)-4-carboxy-4-(17-carboxyheptadecanoylamino)butanoyl]amino]ethoxy]ethoxy]acetyl]amino]ethoxy]ethoxy]acetyl]amino]butanoyl]amino]butanoyl]-[Aib2,Leu10,Arg20,Glu21,Leu27,Lys29]-Glucagon amide] (H-H[Aib]QGTFTSDLSKYLDSRRAREFVQWLLNK([γGlu-γGlu-AEEA-AEEA-γGlu-C18 diacid])-NH2) | 14.7 |
| CC(C)C[C@H](NC(=O)[C@H](Cc1ccc(O)cc1)NC(=O)[C@H](CCCCN)NC(=O)[C@H](CO)NC(=O)[C@H](CC(C)C)NC(=O)[C@H](CC(=O)O)NC(=O)[C@H](CO)NC(=O)[C@@H](NC(=O)[C@H](Cc1ccccc1)NC(=O)[C@@H](NC(=O)CNC(=O)[C@H](CCC(N)=O)NC(=O)C1(NC(=O)[C@@H](N)Cc2c[nH]cn2)CCC1)[C@@H](C)O)[C@@H](C)O)C(=O)N[C@@H](CCC(=O)O)C(=O)N[C@@H](CO)C(=O)N[C@@H](CCCCN)C(=O)N[C@@H](CCCNC(=N)N)C(=O)N[C@@H](C)C(=O)N[C@@H](CCCNC(=N)N)C(=O)N[C@@H](CCC(=O)O)C(=O)N[C@@H](Cc1ccccc1)C(=O)N[C@H](C(=O)N[C@@H](CCC(N)=O)C(=O)N[C@@H](Cc1c[nH]c2ccccc12)C(=O)N[C@@H](CC(C)C)C(=O)N[C@@H](CC(C)C)C(=O)N[C@@H](CCCCNC(=O)CC[C@H](NC(=O)CC[C@H](NC(=O)[C@H](CO)NC(=O)[C@H](CCC(=O)O)NC(=O)[C@H](CO)NC(=O)CC[C@H](NC(=O)CC[C@H](NC(=O)CCCCCCCCCCCCCCCCC(=O)O)C(=O)O)C(=O)O)C(=O)O)C(=O)O)C(=O)N[C@H](C(N)=O)[C@@H](C)O)C(C)C [Example 68, N^ε28-[(4S)-4-carboxy-4-[[(4S)-4-carboxy-4-[[(2S)-2-[[(2S)-4-carboxy-2-[[(2S)-2-[[(4S)-4-carboxy-4-[[(4S)-4-carboxy-4-(17-carboxyheptadecanoylamino)butanoyl]amino]butanoyl]amino]-3-hydroxypropanoyl]amino]butanoyl]amino]-3-hydroxypropanoyl]amino]butanoyl]amino]butanoyl]-[Acb2,Leu10,Glu15,Lys17,Arg20,Glu21,Leu27,Lys28]-Glucagon amide] (H-H[Ac4c]QGTFTSDLSKYLESKRAREFVQWLLK([γGlu-γGlu-Ser-Glu-Ser-γGlu-γGlu-C18 diacid])T-NH2; N-terminus assumed) | 7 |
| CC(C)C[C@H](NC(=O)[C@H](Cc1ccc(O)cc1)NC(=O)[C@H](CCCCN)NC(=O)[C@H](CO)NC(=O)[C@H](CC(C)C)NC(=O)[C@H](CC(=O)O)NC(=O)[C@H](CO)NC(=O)[C@@H](NC(=O)[C@H](Cc1ccccc1)NC(=O)[C@@H](NC(=O)CNC(=O)[C@H](CCC(N)=O)NC(=O)C(C)(C)NC(=O)[C@@H](N)Cc1c[nH]cn1)[C@@H](C)O)[C@@H](C)O)C(=O)N[C@@H](CCC(=O)O)C(=O)N[C@@H](CO)C(=O)N[C@@H](CCCNC(=N)N)C(=O)N[C@@H](CCCNC(=N)N)C(=O)N[C@@H](C)C(=O)N[C@@H](CCCNC(=N)N)C(=O)N[C@@H](CCC(=O)O)C(=O)N[C@@H](Cc1ccccc1)C(=O)N[C@H](C(=O)N[C@@H](CCC(N)=O)C(=O)N[C@@H](Cc1c[nH]c2ccccc12)C(=O)N[C@@H](CC(C)C)C(=O)N[C@@H](CC(C)C)C(=O)N[C@@H](CCCCNC(=O)CC[C@H](NC(=O)CC[C@H](NC(=O)COCCOCCNC(=O)COCCOCCNC(=O)CC[C@H](NC(=O)CC[C@H](NC(=O)CCCCCCCCCCCCCCCCC(=O)O)C(=O)O)C(=O)O)C(=O)O)C(=O)O)C(=O)N[C@H](C(N)=O)[C@@H](C)O)C(C)C [Example 60, N^ε28-[(4S)-4-carboxy-4-[[(4S)-4-carboxy-4-[[2-[2-[2-[[2-[2-[2-[[(4S)-4-carboxy-4-[[(4S)-4-carboxy-4-(17-carboxyheptadecanoylamino)butanoyl]amino]butanoyl]amino]ethoxy]ethoxy]acetyl]amino]ethoxy]ethoxy]acetyl]amino]butanoyl]amino]butanoyl]-[Aib2,Leu10,Glu15,Arg20,Glu21,Leu27,Lys28]-Glucagon amide] (H-H[Aib]QGTFTSDLSKYLESRRAREFVQWLLK([γGlu-γGlu-AEEA-AEEA-γGlu-γGlu-C18 diacid])T-NH2; N-terminus assumed) | 6 |
